Reference: patent US10231958B2, “Methods and compositions for enhancing chemotherapy” (THE BOARD OF REGENTS OF THE UNIVERSITY OF TEXAS SYSTEM, priority 2015, dated 2019)

Columns and labels:
[1] = tested on: NRF2, GCLC, ER stress markers; experiment: Western blot of NRF2, GCLC and ER stress markers; assay type: cell-based; settings: MEFs, MDA-MB231, MCF-7; 8-12 h
Procedure: Western blot. Protein lysates were prepared using RIPA buffer containing 5% sodium deoxycholate, 0.1% SDS, 0.1% Igepal in PBS with a cocktail of protease and phosphatase inhibitors (1 mM PMSF, 1 mM sodium orthovanadate, 1 mM NaF, and 30 μL/mL aprotinin (Sigma-Aldrich, USA)) and clarified by centrifugation. Protein concentration was determined using Bradford Protein Assay Reagent (Biorad, Hercules, Calif.). Equal amounts of protein were resolved using 8-12% SDS polyacrylamide gel, transferred onto nitrocellulose membranes (Hybond-ECL, GE Healthcare Lifesciences, Piscataway, N.J.) and detected using Lumiglo system (Cell Signaling Technology, Calif.) and x-ray films. Primary antibodies included COX-2 (#4842), NRF2 (D1C9), p-JNK1/2 (Thr183/Tyr185, #4671), p-p38 (Thr180/Tyr182, #9216), p-ERK1/2 (Thr202/Tyr204, #9101), BiP/GRP78 (C50B12), IRE1a (14C10), CHOP (L63F7) and PERK (D11A8) from Cell Signaling Technology; p-IRE1a (Ser724; NB100-2323) from Novus Biologicals; GCLC (Ab41463), beta-actin (ab8227) and ATF6 (Ab37149) from Abcam; p-PERK (Thr 981, sc-32577) and ATF3 (C19) were purchased from Santa Cruz. All primary antibodies were used at 1:1000 dilutions and secondary antibodies were 1:3000 in TBS-T with 5% BSA.

MEFs = experiment: Metabolomics of GSH metabolites in MEFs; assay type: cell-based, mouse; settings: MMS 40 μg/mL
Procedure: The 2.4×10^6 Kc167 or 2×10^6 MEFs were seeded using complete growth medium on Day 0 in a T-175 cell culture flask and were allowed to grow for three days. After treatments with MMS (40 μg/mL), cells were harvested and centrifuged at 8 and 24 hours, and washed using ice-cold PBS. The cell numbers were adjusted to 90×10^6 (Kc167) or 24×10^6 (MEF) and provided as 100 μL of packed cell pellet for metabolic profiling. Metabolomic profiling and data analysis was provided through mView service performed by Metabolon Inc., Durham, N.C. Five biological replicates of each group were used for analysis at each time point. In addition, detailed changes in nucleotide pools were measured in a separate set of experiments. Nucleotide quantification and Metabolomics Pathway Enrichment Analyses were performed through MetaboAnalyst 2.0 (Xia et al., 2012, Nucleic Acids Res 40(Web Server issue), W127-33; Xia et al., 2009, Nucleic Acids Res 37(Web Server issue), W652-60).

MDA-MB231 cells [2] = experiment: Extracellular matrix invasion assay (Boyden chamber); assay type: cell-based, human; settings: CM from sorafenib or sorafenib plus MMS/4-HC vs CM from MMS or 4-HC alone
Procedure: Quantification of MMP1 and MMP3 content in culture medium was assessed using RayBio-MMP3 and RayBio-MMP1 Elisa Kit (RayBiotech, Inc); IL8 was analyzed by Human IL-8 Elisa kit (Pierce Biotechnology). The levels of prostaglandin E2 (PGE2) were determined using the Prostaglandin E2 EIA Kit Monoclonal (Cayman Chemical Company). Culture media were diluted to fit within the standard curves. For conditioned media (CM) preparation for invasion and in vitro angiogenesis experiments, 12-well plated cells were treated with MMS (or MMS plus inhibitors) for 8 h in the presence of 10% FBS, twice washed with HBSS, and incubated with 700 μL drug/serum-free fresh medium for additional 12 h. Thereafter, the conditioned fresh medium was collected and directly used for migration and invasion experiments in order to reduce freezing associated loss of activity.
The invasion potential of breast cancer cells was estimated using the QCM™ 24-Well Cell Invasion Assay Fluorimetric (Millipore). Serum starved cells were trypsinized, trypsin-inhibited, centrifuged, resuspended to 5000 cells/μL, and 50 μL of this suspension (250,000 cells) was seeded on 8 μm pore size inserts coated with extracellular matrix in serum-free conditions. Afterwards, 200 μL conditioned (CM) or fresh medium without serum was added to top chambers. The bottom chamber consisted of 500 μL of DMEM supplemented with 10% FBS as chemoattractant. Cells were allowed to migrate for 24 h at 37° C. under 5% CO2. Invaded cells were detached from the bottom side of the insert, lysed and incubated with CyQuant GR fluorescent Dye for 15 min. Fluorescence was read at Ex/Em=480/520 nm. Percentage of invading cells was compared to cell number standard curves.

MDA-MB231 cells [3] = experiment: Gene expression profiling (RNAseq) in MDA-MB231 cells; assay type: cell-based, human
Procedure: Human cancer cell-lines treated with different pharmaceutical compounds were profiled by RNA-seq protocol using Illumina HiSeq 2000 system (Illumina, San Diego, Calif.). RNA was harvested 0, 8 and 24 hours post treatment using the RNeasy protocol (Qiagen) and the purity of prepared RNA was determined using Agilent 2100 BioAnalyzer. Total RNA samples about […] were used for sequencing library preparation according to Illumina TruSeq Total RNA Sample Preparation Guide (Illumina Cat. #: RS-122-2201). Each library was bar-coded and then pooled for cluster generation and sequencing run with 100 bp paired-end (PE) sequencing protocol. Short read sequences from RNAseq were first aligned to UCSC hg19 genome build using TopHat2 algorithm (PMID:19289445) and then quantified for gene expression by HTSeq [Anders, 2014]. Genes with lower read counts (determined by examining read counts in non-exonic regions) were removed. Differential expression more than 2 fold was selected as differentially expressed genes (DEGs).
For those genes for which expression was higher than noise/background, significant change in expression compared to unexposed (0 h) control, ±2-fold change, was used as cut-off for induction/repression. The lists of genes with altered expression were analyzed using Ingenuity Systems (IPA, Ingenuity Pathway Analyzer, Qiagen), DAVID (PMID:19131956; PMID: 19033363), and Rock Breast Cancer Functional Genomic Database (PMID:20563840) analytical software (p<0.05; FDR<10%) to ensure a good coverage of both metabolic and transduction pathways (due to differences in pathways libraries with the databases). Only pathways related to biological processes/signaling were considered relevant, and the terms were grouped by similarity of the biological for presentation; disease related pathways were discarded. Transcription factor enrichment analysis was performed using the TFactS software (PMID:20215436), which uses an algorithm to compare potential transcription factors involved in the regulation of genes with the input lists. […]

Structure (SMILES)	NRF2 and GCLC protein levels [1]	increase in methyl-GSH (MEFs) [fold]	invasion with CM from treated cells (MDA-MB231 cells [2])	effect on NRF2 and UPR genes (MDA-MB231 cells [3]; 5 μM sorafenib)	effect on basal gene expression (VEGFA, HES1, MAML3, PLAT, ADAMST1) (MDA-MB231 cells [3]; 5 μM sorafenib)	effect on MMS-induced inflammatory/invasive genes (MDA-MB231 cells [3]; 5 μM sorafenib plus MMS)
COS(C)(=O)=O [MMS, methyl-methanesulfonate]	rapidly increased in total and nuclear fractions	100	–	–	–	–
CNC(=O)c1cc(Oc2ccc(NC(=O)Nc3ccc(Cl)c(C(F)(F)F)c3)cc2)ccn1 [sorafenib, 4-[4-[[4-chloro-3-(trifluoromethyl)phenyl]carbamoylamino]phenoxy]-N-methyl-pyridine-2-carboxamide]	–	–	unable to invade Boyden Chambers	lack of effect	decreased basal expression of several genes	blocked several of the aforementioned MMS-induced inflammatory/invasive genes
